One assay addresses Adenosine receptor A2a (Homo sapiens, UniProt P29274).
In assay [1] the target is T1, Type-1 angiotensin II receptor (Homo sapiens, UniProt P30556).
T1 sequence (P30556 whole entry): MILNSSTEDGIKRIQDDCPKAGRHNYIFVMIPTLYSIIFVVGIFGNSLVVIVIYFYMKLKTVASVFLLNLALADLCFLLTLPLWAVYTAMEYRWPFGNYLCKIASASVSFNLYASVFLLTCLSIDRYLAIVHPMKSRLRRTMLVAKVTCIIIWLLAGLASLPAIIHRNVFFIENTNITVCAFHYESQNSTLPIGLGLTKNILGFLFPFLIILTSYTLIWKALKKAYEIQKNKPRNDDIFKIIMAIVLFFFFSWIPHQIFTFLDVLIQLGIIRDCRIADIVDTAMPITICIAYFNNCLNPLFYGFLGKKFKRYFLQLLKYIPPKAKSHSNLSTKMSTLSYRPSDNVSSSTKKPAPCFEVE

The target in assay [2] is Voltage-dependent L-type calcium channel subunit alpha-1C (Rattus norvegicus, UniProt P22002). Format: functional.
Assay [3] has as its target T2, Cholecystokinin receptor type A (Homo sapiens, UniProt P32238).
T2 sequence (P32238 whole entry): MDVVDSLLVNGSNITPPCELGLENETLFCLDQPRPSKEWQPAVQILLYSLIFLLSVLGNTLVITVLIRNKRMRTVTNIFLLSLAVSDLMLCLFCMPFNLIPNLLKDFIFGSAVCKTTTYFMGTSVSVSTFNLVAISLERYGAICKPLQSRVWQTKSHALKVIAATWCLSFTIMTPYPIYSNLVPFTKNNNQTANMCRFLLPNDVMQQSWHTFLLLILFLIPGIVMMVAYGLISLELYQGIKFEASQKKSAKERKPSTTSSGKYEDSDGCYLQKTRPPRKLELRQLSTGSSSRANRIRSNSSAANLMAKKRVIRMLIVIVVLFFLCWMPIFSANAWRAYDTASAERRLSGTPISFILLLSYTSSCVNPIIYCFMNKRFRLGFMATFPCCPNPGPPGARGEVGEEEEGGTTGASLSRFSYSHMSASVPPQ

The target in assay [4] is Neuronal acetylcholine receptor subunit alpha-4 (Homo sapiens, UniProt P43681).
The target of assay [5] is T3, Cannabinoid receptor 1 (Homo sapiens, UniProt P21554). Format: functional, cell-based.
Assay [6] deals with T3, Cannabinoid receptor 1. Format: functional, cell-based. The source holds these as a separate data set.
Another assay has as its target D(1A) dopamine receptor (Homo sapiens, UniProt P21728). Format: functional, cell-based.
For assay [7], the target named is Gamma-aminobutyric acid receptor subunit alpha-1 (Rattus norvegicus, UniProt P62813). Format: functional.
For assay [8], the target named is Glutamate receptor ionotropic, NMDA 1 (Rattus norvegicus, UniProt P35439).
A further assay addresses Histamine H2 receptor (Homo sapiens, UniProt P25021). Format: functional, cell-based.
A further assay addresses T4, Progesterone receptor (Homo sapiens, UniProt P06401).
T4 sequence (P06401 whole entry): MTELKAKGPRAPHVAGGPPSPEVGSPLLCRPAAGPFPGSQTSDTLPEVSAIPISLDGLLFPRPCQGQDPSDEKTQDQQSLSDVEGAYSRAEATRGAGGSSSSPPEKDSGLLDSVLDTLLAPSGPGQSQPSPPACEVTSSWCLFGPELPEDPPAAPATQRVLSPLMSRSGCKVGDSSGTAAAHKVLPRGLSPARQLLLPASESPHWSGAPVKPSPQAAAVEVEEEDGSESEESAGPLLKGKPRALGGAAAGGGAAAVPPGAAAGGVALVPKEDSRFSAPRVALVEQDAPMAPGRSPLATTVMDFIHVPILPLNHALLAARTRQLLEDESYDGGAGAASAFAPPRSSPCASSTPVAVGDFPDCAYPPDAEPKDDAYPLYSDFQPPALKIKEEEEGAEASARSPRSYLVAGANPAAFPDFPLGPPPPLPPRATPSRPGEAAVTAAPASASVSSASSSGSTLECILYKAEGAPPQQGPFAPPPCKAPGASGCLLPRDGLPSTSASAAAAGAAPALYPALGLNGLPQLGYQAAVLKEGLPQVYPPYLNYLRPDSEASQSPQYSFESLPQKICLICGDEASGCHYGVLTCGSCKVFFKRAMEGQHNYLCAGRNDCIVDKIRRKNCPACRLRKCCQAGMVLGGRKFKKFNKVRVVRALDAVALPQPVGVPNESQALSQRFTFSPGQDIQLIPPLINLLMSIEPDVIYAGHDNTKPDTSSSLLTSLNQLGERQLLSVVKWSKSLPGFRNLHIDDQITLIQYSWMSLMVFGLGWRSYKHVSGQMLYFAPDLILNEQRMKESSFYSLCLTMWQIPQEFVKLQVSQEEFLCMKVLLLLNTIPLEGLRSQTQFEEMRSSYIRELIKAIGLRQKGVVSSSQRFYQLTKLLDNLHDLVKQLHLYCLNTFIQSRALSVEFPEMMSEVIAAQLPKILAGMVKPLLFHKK
Format: functional.

The target in assay [9] is T5, Prostaglandin G/H synthase 1 (Rattus norvegicus, UniProt Q63921).
T5 sequence (Q63921 whole entry): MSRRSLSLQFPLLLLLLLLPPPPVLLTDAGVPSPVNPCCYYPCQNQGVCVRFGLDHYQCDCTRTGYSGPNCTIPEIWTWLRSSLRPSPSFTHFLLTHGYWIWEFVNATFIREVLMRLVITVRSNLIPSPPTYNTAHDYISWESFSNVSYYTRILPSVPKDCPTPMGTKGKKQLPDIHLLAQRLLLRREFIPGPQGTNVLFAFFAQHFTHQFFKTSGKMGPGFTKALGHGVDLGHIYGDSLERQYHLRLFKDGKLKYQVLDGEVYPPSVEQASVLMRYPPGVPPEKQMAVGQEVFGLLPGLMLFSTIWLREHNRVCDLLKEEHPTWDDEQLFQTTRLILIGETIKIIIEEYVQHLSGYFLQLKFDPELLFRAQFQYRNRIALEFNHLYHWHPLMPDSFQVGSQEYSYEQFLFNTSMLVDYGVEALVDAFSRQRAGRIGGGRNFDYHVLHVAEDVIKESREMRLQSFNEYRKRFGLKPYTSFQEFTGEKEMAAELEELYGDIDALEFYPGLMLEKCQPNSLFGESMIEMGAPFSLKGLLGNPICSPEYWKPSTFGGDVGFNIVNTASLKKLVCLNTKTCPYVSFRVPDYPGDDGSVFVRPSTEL
Format: functional.

Assay [10] deals with Sodium-dependent noradrenaline transporter (Homo sapiens, UniProt P23975).

What is called AC50 is the concentration giving half of the maximal activity seen.
Also: assay procedure not described here.

Neuronal acetylcholine receptor subunit alpha-4, sequence (P43681 whole entry): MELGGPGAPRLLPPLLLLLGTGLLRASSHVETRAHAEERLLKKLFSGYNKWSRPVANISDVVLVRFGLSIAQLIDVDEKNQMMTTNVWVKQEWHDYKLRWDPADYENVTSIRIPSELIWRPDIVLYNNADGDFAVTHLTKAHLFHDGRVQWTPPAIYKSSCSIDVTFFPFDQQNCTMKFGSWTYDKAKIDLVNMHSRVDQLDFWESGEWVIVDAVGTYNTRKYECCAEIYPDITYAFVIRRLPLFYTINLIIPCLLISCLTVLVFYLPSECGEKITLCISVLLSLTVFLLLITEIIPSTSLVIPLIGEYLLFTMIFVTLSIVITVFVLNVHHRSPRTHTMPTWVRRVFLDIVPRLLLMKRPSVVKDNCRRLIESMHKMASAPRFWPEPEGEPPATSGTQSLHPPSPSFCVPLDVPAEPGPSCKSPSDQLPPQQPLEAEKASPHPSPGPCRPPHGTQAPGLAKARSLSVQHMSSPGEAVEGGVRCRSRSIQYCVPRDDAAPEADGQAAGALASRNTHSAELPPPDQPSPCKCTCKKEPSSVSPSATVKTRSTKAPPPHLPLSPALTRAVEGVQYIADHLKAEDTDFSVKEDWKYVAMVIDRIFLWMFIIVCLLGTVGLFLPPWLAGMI
Sodium-dependent noradrenaline transporter, sequence (P23975 whole entry): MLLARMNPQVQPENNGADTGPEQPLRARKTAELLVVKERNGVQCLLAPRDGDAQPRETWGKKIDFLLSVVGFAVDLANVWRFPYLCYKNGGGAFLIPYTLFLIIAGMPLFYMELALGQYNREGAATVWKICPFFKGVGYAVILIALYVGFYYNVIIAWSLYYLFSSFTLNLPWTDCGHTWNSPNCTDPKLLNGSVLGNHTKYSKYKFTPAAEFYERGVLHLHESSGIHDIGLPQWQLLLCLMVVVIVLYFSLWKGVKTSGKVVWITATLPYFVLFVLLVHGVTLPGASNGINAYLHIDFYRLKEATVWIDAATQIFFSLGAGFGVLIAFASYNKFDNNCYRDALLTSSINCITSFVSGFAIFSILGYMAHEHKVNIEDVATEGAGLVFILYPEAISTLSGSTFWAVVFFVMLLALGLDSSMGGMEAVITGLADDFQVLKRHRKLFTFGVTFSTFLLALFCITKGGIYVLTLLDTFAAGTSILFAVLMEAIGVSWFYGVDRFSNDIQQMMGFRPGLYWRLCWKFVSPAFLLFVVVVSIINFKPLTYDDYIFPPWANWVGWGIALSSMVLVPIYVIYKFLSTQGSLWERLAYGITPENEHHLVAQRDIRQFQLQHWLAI
Voltage-dependent L-type calcium channel subunit alpha-1C, sequence (P22002 whole entry): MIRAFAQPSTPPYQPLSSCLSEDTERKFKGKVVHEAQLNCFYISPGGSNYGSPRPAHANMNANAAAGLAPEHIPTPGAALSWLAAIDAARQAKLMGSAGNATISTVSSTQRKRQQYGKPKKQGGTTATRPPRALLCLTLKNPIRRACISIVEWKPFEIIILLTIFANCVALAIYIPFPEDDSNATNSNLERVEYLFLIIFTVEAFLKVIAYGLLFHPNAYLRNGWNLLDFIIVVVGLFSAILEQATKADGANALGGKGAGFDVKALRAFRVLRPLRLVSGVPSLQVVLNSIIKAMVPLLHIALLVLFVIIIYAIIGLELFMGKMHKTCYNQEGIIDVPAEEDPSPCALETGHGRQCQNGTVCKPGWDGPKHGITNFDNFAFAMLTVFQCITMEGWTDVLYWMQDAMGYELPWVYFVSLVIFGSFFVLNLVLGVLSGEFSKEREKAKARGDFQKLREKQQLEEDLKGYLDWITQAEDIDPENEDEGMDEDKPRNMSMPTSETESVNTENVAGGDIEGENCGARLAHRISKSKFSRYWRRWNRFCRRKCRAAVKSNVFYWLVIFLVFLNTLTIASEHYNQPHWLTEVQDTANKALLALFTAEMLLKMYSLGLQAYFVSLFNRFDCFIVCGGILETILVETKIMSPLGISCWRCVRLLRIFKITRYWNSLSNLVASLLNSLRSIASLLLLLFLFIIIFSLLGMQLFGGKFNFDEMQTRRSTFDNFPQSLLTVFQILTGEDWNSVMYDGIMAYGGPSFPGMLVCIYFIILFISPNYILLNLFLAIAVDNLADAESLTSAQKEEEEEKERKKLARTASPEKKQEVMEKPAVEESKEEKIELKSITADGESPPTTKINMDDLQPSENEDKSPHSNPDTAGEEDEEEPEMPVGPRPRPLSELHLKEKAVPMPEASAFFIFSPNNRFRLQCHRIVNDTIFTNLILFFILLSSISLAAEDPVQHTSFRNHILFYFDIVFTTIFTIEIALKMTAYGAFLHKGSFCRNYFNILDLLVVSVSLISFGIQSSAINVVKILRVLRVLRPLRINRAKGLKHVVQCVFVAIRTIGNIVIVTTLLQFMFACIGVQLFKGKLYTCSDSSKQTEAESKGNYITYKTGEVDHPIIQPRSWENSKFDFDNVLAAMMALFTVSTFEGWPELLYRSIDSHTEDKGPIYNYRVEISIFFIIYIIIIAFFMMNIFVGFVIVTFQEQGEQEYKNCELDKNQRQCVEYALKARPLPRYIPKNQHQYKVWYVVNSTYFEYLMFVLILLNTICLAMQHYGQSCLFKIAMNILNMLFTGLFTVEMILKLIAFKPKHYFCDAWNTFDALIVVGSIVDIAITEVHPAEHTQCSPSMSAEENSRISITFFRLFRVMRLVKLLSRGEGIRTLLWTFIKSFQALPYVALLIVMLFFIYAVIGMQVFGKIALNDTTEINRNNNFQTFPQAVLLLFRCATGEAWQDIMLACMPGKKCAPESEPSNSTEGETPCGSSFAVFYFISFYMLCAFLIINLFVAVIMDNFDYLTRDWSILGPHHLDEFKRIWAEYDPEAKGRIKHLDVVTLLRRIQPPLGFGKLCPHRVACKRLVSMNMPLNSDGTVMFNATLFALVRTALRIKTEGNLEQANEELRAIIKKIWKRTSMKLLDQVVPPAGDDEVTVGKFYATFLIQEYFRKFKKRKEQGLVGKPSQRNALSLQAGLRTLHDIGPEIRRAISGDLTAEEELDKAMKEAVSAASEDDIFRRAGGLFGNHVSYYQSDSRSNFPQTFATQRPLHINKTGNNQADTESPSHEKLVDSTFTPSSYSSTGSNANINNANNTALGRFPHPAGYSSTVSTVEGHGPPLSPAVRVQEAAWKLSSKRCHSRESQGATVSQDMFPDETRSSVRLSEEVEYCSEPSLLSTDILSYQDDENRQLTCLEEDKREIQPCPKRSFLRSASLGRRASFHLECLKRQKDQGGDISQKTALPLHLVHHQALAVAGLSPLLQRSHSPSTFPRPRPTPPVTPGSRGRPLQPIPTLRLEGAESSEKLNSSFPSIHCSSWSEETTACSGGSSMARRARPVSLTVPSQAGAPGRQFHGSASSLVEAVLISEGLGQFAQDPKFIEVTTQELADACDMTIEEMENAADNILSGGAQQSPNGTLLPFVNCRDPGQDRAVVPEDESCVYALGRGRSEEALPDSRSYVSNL
T3 sequence (P21554 whole entry): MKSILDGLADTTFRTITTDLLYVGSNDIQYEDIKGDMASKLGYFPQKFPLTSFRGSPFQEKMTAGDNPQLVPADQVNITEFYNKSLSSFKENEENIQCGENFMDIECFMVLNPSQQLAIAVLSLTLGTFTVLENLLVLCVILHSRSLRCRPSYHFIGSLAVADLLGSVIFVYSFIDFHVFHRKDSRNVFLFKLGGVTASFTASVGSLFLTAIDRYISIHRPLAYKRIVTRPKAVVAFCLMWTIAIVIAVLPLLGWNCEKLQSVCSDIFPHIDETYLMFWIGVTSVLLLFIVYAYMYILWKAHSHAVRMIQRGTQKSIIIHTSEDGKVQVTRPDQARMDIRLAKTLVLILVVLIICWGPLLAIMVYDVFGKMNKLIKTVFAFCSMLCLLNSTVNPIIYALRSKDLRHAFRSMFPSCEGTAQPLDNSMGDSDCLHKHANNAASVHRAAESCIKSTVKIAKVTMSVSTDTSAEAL
Adenosine receptor A2a, sequence (P29274 whole entry): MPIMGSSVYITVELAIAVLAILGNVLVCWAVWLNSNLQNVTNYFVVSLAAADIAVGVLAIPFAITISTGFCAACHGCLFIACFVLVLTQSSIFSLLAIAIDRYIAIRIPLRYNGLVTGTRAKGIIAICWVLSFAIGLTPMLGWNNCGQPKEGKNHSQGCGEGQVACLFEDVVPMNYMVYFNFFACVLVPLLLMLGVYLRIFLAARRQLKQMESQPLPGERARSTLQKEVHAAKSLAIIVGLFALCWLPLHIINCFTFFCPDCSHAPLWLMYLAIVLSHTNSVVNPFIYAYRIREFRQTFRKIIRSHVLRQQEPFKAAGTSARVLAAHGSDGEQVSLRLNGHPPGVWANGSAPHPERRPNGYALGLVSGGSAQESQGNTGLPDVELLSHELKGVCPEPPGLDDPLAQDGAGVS
Gamma-aminobutyric acid receptor subunit alpha-1, sequence (P62813 whole entry): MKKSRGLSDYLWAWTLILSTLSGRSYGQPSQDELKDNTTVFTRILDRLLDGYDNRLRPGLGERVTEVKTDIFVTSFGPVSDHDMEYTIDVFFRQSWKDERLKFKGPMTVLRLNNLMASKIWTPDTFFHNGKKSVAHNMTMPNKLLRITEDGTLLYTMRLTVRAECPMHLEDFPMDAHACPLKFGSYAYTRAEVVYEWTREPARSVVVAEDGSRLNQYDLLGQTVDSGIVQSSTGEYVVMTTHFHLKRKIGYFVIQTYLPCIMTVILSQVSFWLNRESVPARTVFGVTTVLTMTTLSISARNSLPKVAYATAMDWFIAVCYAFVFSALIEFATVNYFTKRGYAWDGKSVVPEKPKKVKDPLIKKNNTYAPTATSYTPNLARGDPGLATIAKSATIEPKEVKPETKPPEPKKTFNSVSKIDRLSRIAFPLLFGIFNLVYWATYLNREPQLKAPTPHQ

For `O=C1NCCN1CCN1CCC(c2cn(-c3ccc(F)cc3)c3ccc(Cl)cc23)CC1` [SERTINDOLE], the AC50 on Adenosine receptor A2a was above 30 µM; in assay [1], above 30 µM; in assay [2], above 30 µM; in [3] it was above 30 µM; in assay [4], 17 µM; on Cannabinoid receptor 1 [5] it was above 30 µM. Moreover, the AC50 is 20 µM at Cannabinoid receptor 1 [6]; above 30 µM on D(1A) dopamine receptor; above 30 µM in assay [7]; above 30 µM in assay [8]; above 30 µM at Histamine H2 receptor; above 30 µM at Progesterone receptor. Besides, the AC50 in assay [9] was above 30 µM; in assay [10], 2.7 µM.
For the molecule `CCCCCN(C)CCC(O)(P(=O)(O)O)P(=O)(O)O` [IBANDRONIC ACID], the AC50 at Adenosine receptor A2a is above 30 µM; in assay [1], 6.2 µM; in [2], above 30 µM; in assay [3], above 30 µM; in assay [4], above 30 µM; at Cannabinoid receptor 1 [5], above 30 µM. Further, the AC50 (on Cannabinoid receptor 1 [6]; on D(1A) dopamine receptor; in assay [7]; in assay [8]; at Histamine H2 receptor; on Progesterone receptor) was above 30 µM each time. For the same molecule, the AC50 in assay [9] and in assay [10] was above 30 µM in each case.
Consider `CCCCCCCCCCCC[N+](C)(C)CCOc1ccccc1` [DOMIPHEN], for which the AC50 was above 30 µM on Adenosine receptor A2a; 14 µM in [1]; above 30 µM in [2]; above 30 µM in [3]; above 30 µM in assay [4]; above 30 µM at Cannabinoid receptor 1 [5]. Also, the AC50 is 17 µM on Cannabinoid receptor 1 [6]; above 30 µM at D(1A) dopamine receptor; above 30 µM in assay [7]; above 30 µM in assay [8]; above 30 µM at Histamine H2 receptor; 4.5 µM at Progesterone receptor. For the same molecule, the AC50 in [9] is above 30 µM; in assay [10], 1.4 µM.
For the molecule `CCCCOc1cc(C(=O)NCCN(CC)CC)c2ccccc2n1` [DIBUCAINE], the AC50 on Adenosine receptor A2a was above 30 µM; in assay [1], above 10 µM; in assay [2], above 10 µM; in assay [3], above 30 µM; in assay [4] it was above 30 µM; at Cannabinoid receptor 1 [5], above 30 µM. Besides, the AC50 at Cannabinoid receptor 1 [6] is above 30 µM; on D(1A) dopamine receptor, above 10 µM; in assay [7], above 30 µM; in [8], above 10 µM; on Histamine H2 receptor it was above 10 µM; on Progesterone receptor, above 10 µM. The AC50 in assay [9] and in assay [10] was above 10 µM in each case.
Consider `CCCCCCCCOc1ccccc1C(=O)Nc1ccc(C(=O)OCC[N+](C)(CC)CC)cc1` [OTILONIUM BROMIDE], for which the AC50 was 5.3 µM at Adenosine receptor A2a; 20 µM in [1]; 16 µM in [2]; above 30 µM in [3]; above 30 µM in assay [4]; above 30 µM on Cannabinoid receptor 1 [5]. Besides, the AC50 was 19 µM on Cannabinoid receptor 1 [6]; above 30 µM at D(1A) dopamine receptor; above 30 µM in [7]; above 30 µM in assay [8]; above 30 µM at Histamine H2 receptor; 7 µM at Progesterone receptor. In addition, the AC50 in [9] worked out at 14 µM; in [10], 3.3 µM.
`CCC1(C2=CCCCCC2)C(=O)NC(=O)NC1=O` [HEPTABARBITAL]: the AC50 on Adenosine receptor A2a was above 10 µM; in [1], above 10 µM; in assay [2] it was above 10 µM; in assay [3] it was above 10 µM; in assay [4] it was above 10 µM; at Cannabinoid receptor 1 [5], above 30 µM. Further, the AC50 at Cannabinoid receptor 1 [6] was above 30 µM; on D(1A) dopamine receptor, above 10 µM; in assay [7] it was above 10 µM; in [8], above 10 µM; at Histamine H2 receptor it was above 10 µM; at Progesterone receptor it was above 10 µM. The AC50 in assay [9] and in assay [10] was above 10 µM each time.
`C1=Cc2cccc(OCC3CNCCO3)c2C1` (stereo unspecified) [INDELOXAZINE]: the AC50 (on Adenosine receptor A2a; in assay [1]; in [2]; in assay [3]; in [4]; on Cannabinoid receptor 1 [5]) was above 30 µM each time. Further, the AC50 (at Cannabinoid receptor 1 [6]; at D(1A) dopamine receptor; in assay [7]; in assay [8]; on Histamine H2 receptor; on Progesterone receptor) was above 30 µM throughout. The concentration at half-maximal activity (AC50) in [9] is above 30 µM; in assay [10], 0.7 µM.
Regarding `C#CCN(C)[C@H](C)Cc1ccccc1` [SELEGILINE], the AC50 was above 10 µM on Adenosine receptor A2a; above 10 µM in assay [1]; above 10 µM in [2]; above 10 µM in [3]; above 10 µM in assay [4]; above 30 µM at Cannabinoid receptor 1 [5]. Also, the AC50 on Cannabinoid receptor 1 [6] is above 30 µM; on D(1A) dopamine receptor, above 10 µM; in [7], above 10 µM; in [8], above 10 µM; on Histamine H2 receptor it was above 10 µM; on Progesterone receptor, above 10 µM. Moreover, the AC50 in assay [9] and in assay [10] was above 10 µM throughout.
On to `COc1ccc(C(=O)NCc2ccc(OCCN(C)C)cc2)cc1OC` [ITOPRIDE], for which the AC50 (at Adenosine receptor A2a; in assay [1]; in [2]; in assay [3]; in [4]; at Cannabinoid receptor 1 [5]) was above 30 µM in each case. Further, the half-maximal activity concentration (AC50) (at Cannabinoid receptor 1 [6]; on D(1A) dopamine receptor; in [7]; in assay [8]; on Histamine H2 receptor; at Progesterone receptor) was above 30 µM each time. Further, the figures for the AC50 in assay [9] and in assay [10] were above 10 µM and above 30 µM, respectively.

Source of the values: ChEMBL document CHEMBL5291721, “A preclinical secondary pharmacology resource illuminates target-adverse drug reaction associations of marketed drugs” (Nat Commun, 2023).
